Assay results taken from the supplement of paper PMC10307832.

Assays:
Experiment in all cases: relative viability (nuclei count vs DMSO), 5 days (fraction); higher = more cells survive
Ponatinib = compound: Cc1ccc(C(=O)Nc2ccc(CN3CCN(C)CC3)c(C(F)(F)F)c2)cc1C#Cc1cnc2cccnn12 [Ponatinib]
Method in brief: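 On vehicle-anchored 1536-well plates, lung cancer cell lines held overnight at 37 °C were pinned with five library-drug doses (not always all listed) spaced by √10. With no medium change over 5 days, they were then fixed, permeabilised and Hoechst-stained in one step and imaged at 4×. MetaXpress counted nuclei, and viability is the median across plates of treated-well over vehicle-well nuclei. Acceptance needed control CV below 25% and at least one doubling.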

Ponatinib + Pemetrexed = compound: Cc1ccc(C(=O)Nc2ccc(CN3CCN(C)CC3)c(C(F)(F)F)c2)cc1C#Cc1cnc2cccnn12 [Ponatinib] + Nc1nc2[nH]cc(CCc3ccc(C(=O)N[C@@H](CCC(=O)O)C(=O)O)cc3)c2c(=O)[nH]1 [Pemetrexed] (partner 0.2 µM)
Method in brief: (§1)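 Lung cancer cell lines, seeded in 1536-well plates, were treated the following day by pin tool with a single drug or with five library-drug doses (not always all listed) in √10 steps on top of a fixed anchor-drug dose. Cells were fixed and nuclei stained in one step after 5 days, and nuclei were counted. Relative viability is the nuclei count for treated wells divided by that for vehicle wells, reported as medians of duplicate plates.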

Ponatinib + Bortezomib = compound: Cc1ccc(C(=O)Nc2ccc(CN3CCN(C)CC3)c(C(F)(F)F)c2)cc1C#Cc1cnc2cccnn12 [Ponatinib] + CC(C)C[C@H](NC(=O)[C@H](Cc1ccccc1)NC(=O)c1cnccn1)B(O)O [Bortezomib] (partner 0.002 µM)
Method in brief: as §1

Pazopanib + Phenformin = compound: Cc1ccc(Nc2nccc(N(C)c3ccc4c(C)n(C)nc4c3)n2)cc1S(N)(=O)=O [Pazopanib] + N=C(N)NC(=N)NCCc1ccccc1 [Phenformin] (partner 250 µM)
Method in brief: as §1

Cell Line | relative viability (Ponatinib; 0.002 µM) | relative viability (Ponatinib; 0.006325 µM) | relative viability (Ponatinib; 0.06325 µM) | relative viability (Ponatinib; 0.2 µM) | relative viability (Ponatinib + Pemetrexed; first compound 0.002 µM) | relative viability (Ponatinib + Pemetrexed; first compound 0.006325 µM) | relative viability (Ponatinib + Pemetrexed; first compound 0.06325 µM) | relative viability (Ponatinib + Pemetrexed; first compound 0.2 µM) | relative viability (Ponatinib + Bortezomib; first compound 0.002 µM) | relative viability (Ponatinib + Bortezomib; first compound 0.006325 µM) | relative viability (Ponatinib + Bortezomib; first compound 0.06325 µM) | relative viability (Ponatinib + Bortezomib; first compound 0.2 µM) | relative viability (Pazopanib + Phenformin; first compound 0.03162 µM) | relative viability (Pazopanib + Phenformin; first compound 0.3162 µM) | relative viability (Pazopanib + Phenformin; first compound 1 µM) | relative viability (Pazopanib + Phenformin; first compound 0.01 µM) | relative viability (Pazopanib + Phenformin; first compound 0.1 µM)
NCI-H1792 | 0.887 | 0.836 | 1.12 | 0.838 | 0.698 | 0.849 | 1.14 | 0.746 | 0.918 | 0.942 | 1.14 | 0.854 | 0.308 | 0.348 | 0.31 | – | –
NCI-H1915 | 0.906 | 1 | 0.986 | 0.971 | 0.459 | 0.423 | 0.529 | 0.423 | 0.849 | 0.975 | 0.923 | 0.871 | 0.364 | 0.36 | 0.343 | 0.402 | 0.367
NCI-H1975 | 0.831 | 0.918 | 0.948 | 0.844 | 0.276 | 0.293 | 0.297 | 0.257 | 0.353 | 0.296 | 0.338 | 0.36 | 0.437 | 0.471 | 0.502 | 0.399 | 0.445
NCI-H1993 | 1.02 | 1.03 | 1.2 | 1.05 | 0.691 | 0.62 | 0.573 | 0.678 | 1.11 | 1.15 | 1.4 | 1.23 | 0.457 | 0.591 | 0.496 | – | 0.502
NCI-H2009 | 0.95 | 0.944 | 1.07 | 1.03 | 1.05 | 0.935 | 0.959 | 0.934 | 0.86 | 0.969 | 1.05 | 1 | 0.47 | 0.453 | 0.388 | 0.504 | 0.451
NCI-H2023 | 0.821 | 0.95 | 1.1 | 0.846 | 0.17 | 0.222 | 0.235 | 0.186 | 0.957 | 0.982 | 1.17 | 0.764 | 0.43 | 0.444 | 0.434 | 0.421 | 0.398
NCI-H2085 | 1.01 | 0.997 | 1.19 | 1.06 | 0.852 | 0.894 | 1.04 | 0.874 | 0.98 | 1.15 | 1.25 | 1.03 | 0.835 | 0.694 | 0.833 | 0.624 | 0.683
NCI-H2087 | 0.877 | 0.782 | 0.928 | 0.974 | 0.673 | 0.648 | 0.657 | 0.579 | 0.57 | 0.566 | 0.74 | 0.688 | 0.464 | 0.483 | 0.513 | 0.373 | 0.445
NCI-H2126 | 0.959 | 1.04 | 1.14 | 1.04 | 0.835 | 0.757 | 0.818 | 0.658 | 1.08 | 1.13 | 1.16 | 1.13 | 0.521 | 0.53 | 0.587 | 0.489 | 0.537
NCI-H2228 | 0.828 | 0.991 | 1.07 | 0.895 | 0.382 | 0.339 | 0.358 | 0.306 | 0.933 | 1.1 | 0.755 | 0.893 | 0.366 | 0.443 | 0.313 | 0.366 | 0.324
NCI-H2347 | 0.977 | 1 | 1.19 | 0.977 | 0.41 | 0.444 | 0.474 | 0.485 | – | 1.08 | 0.962 | 0.938 | 0.385 | 0.468 | 0.377 | 0.218 | 0.38
NCI-H2405 | 0.935 | 1.06 | 1.02 | 0.847 | 0.913 | 1.06 | 1.1 | 1.01 | 0.931 | 1.05 | 0.944 | 0.93 | 0.399 | 0.419 | 0.448 | 0.368 | 0.426
NCI-H3122 | 0.979 | 0.997 | 1.02 | 1.02 | 0.208 | 0.194 | 0.214 | 0.194 | 1.02 | 1.02 | 1.02 | 1 | 0.388 | 0.36 | 0.376 | 0.417 | 0.345
PC-3 [JPC-3] | 0.932 | 1.05 | 1.15 | 1.03 | – | 1.09 | 1.12 | 1.1 | 0.826 | 0.812 | 0.961 | 0.815 | 0.465 | 0.472 | 0.478 | 0.52 | 0.513
PC-14 | 0.887 | 0.984 | 1.16 | 0.993 | 0.129 | 0.137 | 0.141 | 0.122 | 0.846 | 0.944 | 1.02 | 0.875 | 0.692 | 0.823 | 0.677 | 0.747 | 0.607
RERF-LC-KJ | 0.926 | 1.01 | 1.05 | 0.965 | 0.468 | 0.492 | 0.486 | 0.453 | 1.06 | 0.988 | 1.2 | 1.15 | 0.419 | 0.417 | 0.417 | 0.445 | 0.43
SK-LU-1 | 0.943 | 1 | 1.07 | 0.928 | 0.978 | 1.07 | 0.958 | 0.84 | 1.01 | 1.01 | 0.949 | 0.757 | 0.627 | 0.571 | 0.575 | 0.505 | 0.537
SW 1573 | 0.961 | 0.955 | 1.06 | 0.897 | 0.841 | 0.802 | 0.835 | 0.838 | 0.971 | 1.02 | 1.03 | 0.997 | 0.36 | 0.437 | 0.509 | 0.406 | 0.471
